The experiment addresses xylanase from Bacillus circulans (BCX) (Niallia circulans, UniProt P09850). Nature of the experiment: NMR titration, 1H-15N HSQC 2D lineshape fit. Type of experiment: binding. Conditions: 25 mM sodium acetate, pH 5.8, 6% D2O, 20 °C; active site -1/-2 subsites.

With `OC1OC[C@@H](O[C@@H]2OC[C@@H](O)[C@H](O)[C@H]2O)[C@H](O)[C@H]1O` (stereo partly shown) [X2, xylobiose], binding was put at a Kd of 10 mM.
